Patent EP1285920A1, “C10 Ester sustituted taxanes as antitumor agents” (Florida State University Research Foundation, Inc., priority 2001, dated 2003)
Where two headings read alike, the source gives them in different places.

Legend:
HCT116 carcinoma = conditions: for Toxic Deaths: mg/kg: Taxol 36 (split doses), 0503 72.6, 0536 49, 0663 159, 0670 123, 0687 159, 0706 108, 0908 159, 0947 76.9, 0951 72.6, 0983 72.6, 0999 49, 1003 49, 1011 108
Protocol: Antitumor compounds were formulated for an i.v. dosing regime and were prepared in the following vehicle: 5% ethanol, 5% Cremophor and 90% isotonic saline.
(§1) The antitumor compounds were given intravenously in a single maximum tolerated dose (MTD) appropriate for each compound. […] The MTDs for the antitumor compounds were calculated from earlier single dose data for mice receiving i.v. administration of these compounds. All vehicle control animals in the split dosing regimes were dosed twice intravenously with half of the total volume being given separated by one hour. The study was terminated on Day 60.
A complete response is obtained if the tumor is not palpable at the end of the study.

A2780 ovarian carcinoma = conditions: for partial responses / total response rate: five mice per group; for Survivors: Day 60
Protocol: Dosing was initiated on Day 1. […] Taxotere was given i.v. on a qd x 1 schedule at a dose of 70 mg/kg. […] The study was terminated on Day 60. Treatment groups are detailed in Table 7.

HCT116 = assay: In Vitro cytotoxicity measured by the cell colony formation assay; assay type: cell-based, human; conditions: Homo sapiens, HCT-116; read-out: IN VITRO ID 50 HCT116
Procedure, shortened: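 Four hundred cells per dish in McCoy's 5a medium with 10% FBS were allowed to attach for 5 h at 37 °C. They were then exposed to compound for 72 h at 37 °C, added as a 10× stock made fresh in medium. After HBSS rinsing and refeeding, colonies were counted after 7 days.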

MX-1 carcinoma = conditions: for Toxic Deaths: mg/kg: Taxol 36 (split dose), 0503 72.6, 0536 49, 0663 159, 0670 123, 0687 159, 0706 108, 0908 159, 0947 76.9, 0951 72.6, 0983 67.4, 0999 49, 1003 49, 1011 108
Protocol: Thirteen antitumor compounds were formulated for an i.v. dosing regime (single i.v. bolus, qd x 1 schedule) prepared in the following vehicle: 5% ethanol, 5% Cremophor and 90% isotonic saline.
as §1, with “half” for “half of”
A complete response is obtained if the tumor is not palpable at the end of the study. […]

[1] = number of 5 mice, i.v. qd x 1 at MTD, Day 60, doses as in E3
[2] = number of 5 mice, i.v. qd x 1 at MTD, Day 60
[3] = number of mice, i.v. qd x 1 at estimated MTD (Taxol 24 mg/kg, Taxotere 70 mg/kg, 0983 72.6 mg/kg), 5 mice/group (Taxotere 6)
[4] = number of 6 mice, i.v. qd x 1 at MTD, Day 60, doses as in E17
[5] = number of 6 mice, i.v. qd x 1 at MTD, Day 60

CCCC(=O)O[C@H]1C(=O)[C@@]2(C)[C@H]([C@H](OC(=O)c3ccccc3)[C@]3(O)C[C@H](OC(=O)[C@H](O)[C@H](C=C(C)C)NC(=O)OC(C)(C)C)C(C)=C1C3(C)C)[C@]1(OC(C)=O)CO[C@@H]1C[C@@H]2O [Compound 0947]
Partial Response (HCT116 carcinoma; iv): 4 | Complete Response (HCT116 carcinoma; iv, 1440 h): 1 | Mean Score (HCT116 carcinoma; iv, 1440 h): 9.2 ± 0.2 | Stable Disease (HCT116 carcinoma; iv, 1440 h): 0 | Survivors (HCT116 carcinoma; [1]): 5 | Toxic Deaths (HCT116 carcinoma; [2]): 0 | partial responses (A2780 ovarian carcinoma; A2780, i.v. qd x 1): 2 | total response rate (A2780 ovarian carcinoma; A2780, i.v. qd x 1): at least 20% | Mean Score (A2780 ovarian carcinoma; iv, 72.6 mg/kg): 4.8 ± 1.8 | Complete Response (A2780 ovarian carcinoma; iv, 72.6 mg/kg, 1440 h): 0 | MDS (n) (A2780 ovarian carcinoma; iv, 72.6 mg/kg, 1440 h): 32.7 ± 5.4 (2) days | Partial Respons (A2780 ovarian carcinoma; iv, 72.6 mg/kg, 1440 h): 2 | Stable Disease (A2780 ovarian carcinoma; iv, 72.6 mg/kg, 1440 h): 0 | Toxic Deaths (A2780 ovarian carcinoma; [3]): 1 | Survivors (A2780 ovarian carcinoma; [3]): 2 | IC50 (HCT116): < 1 nM | Partial Response (MX-1 carcinoma; iv): 0 | Complete Response (MX-1 carcinoma; iv, 1440 h): 3 | Mean Score (MX-1 carcinoma; iv, 1440 h): 5.5 ± 2.1 | Stable Disease (MX-1 carcinoma; iv, 1440 h): 0 | Survivors (MX-1 carcinoma; [4]): 3 | Toxic Deaths (MX-1 carcinoma; [5]): 2

CCCC(=O)O[C@H]1C(=O)[C@@]2(C)[C@H]([C@H](OC(=O)c3ccccc3)[C@]3(O)C[C@H](OC(=O)[C@H](O)[C@@H](NC(=O)OC(C)(C)C)c4cccs4)C(C)=C1C3(C)C)[C@]1(OC(C)=O)CO[C@@H]1C[C@@H]2O [Compound 1003]
Partial Response (HCT116 carcinoma; iv): 3 | Complete Response (HCT116 carcinoma; iv, 1440 h): 2 | Mean Score (HCT116 carcinoma; iv, 1440 h): 9.4 ± 0.2 | Stable Disease (HCT116 carcinoma; iv, 1440 h): 0 | Survivors (HCT116 carcinoma; [1]): 5 | Toxic Deaths (HCT116 carcinoma; [2]): 0 | partial responses (A2780 ovarian carcinoma; A2780, i.v. qd x 1): 2 | total response rate (A2780 ovarian carcinoma; A2780, i.v. qd x 1): at least 20% | IC50 (HCT116): < 1 nM | Partial Response (MX-1 carcinoma; iv): 0 | Complete Response (MX-1 carcinoma; iv, 1440 h): 4 | MDS (n) (MX-1 carcinoma; iv, 1440 h): 29.1 ± 10.8 (2) days | Mean Score (MX-1 carcinoma; iv, 1440 h): 7.3 ± 1.7 | Stable Disease (MX-1 carcinoma; iv, 1440 h): 0 | Survivors (MX-1 carcinoma; [4]): 4 | Toxic Deaths (MX-1 carcinoma; [5]): 0

CCCC(=O)O[C@H]1C(=O)[C@@]2(C)[C@H]([C@H](OC(=O)c3ccccc3)[C@]3(O)C[C@H](OC(=O)[C@H](O)[C@@H](NC(=O)OC(C)(C)C)c4ccoc4)C(C)=C1C3(C)C)[C@]1(OC(C)=O)CO[C@@H]1C[C@@H]2O [Compound 0999]
Mean Score (HCT116 carcinoma; i.v. qd x 1 at MTD, 5 mice/group, Day 60, doses as in E3): 9.2 ± 0.2 | Stable Disease (HCT116 carcinoma; number of 5 mice, tumor did not reach 2.0 g by end of study, i.v. qd x 1 at MTD, Day 60, doses as in E3): 0 | Complete Response (HCT116 carcinoma; number of 5 mice, tumor not palpable at end of study, i.v. qd x 1 at MTD, Day 60, doses as in E3): 1 | Partial Response (HCT116 carcinoma; number of 5 mice, tumor smaller than on Day 1, i.v. qd x 1 at MTD, Day 60, doses as in E3): 4 | Survivors (HCT116 carcinoma; [1]): 5 | Toxic Deaths (HCT116 carcinoma; [2]): 0 | total response rate (A2780 ovarian carcinoma; A2780, i.v. qd x 1): at least 20% | IC50 (HCT116): < 1 nM | Mean Score (MX-1 carcinoma; i.v. qd x 1 at MTD, 6 mice/group, Day 60, doses as in E17): 8.2 ± 1.2 | Stable Disease (MX-1 carcinoma; number of 6 mice, tumor did not reach 2.0 g by end of study, i.v. qd x 1 at MTD, Day 60, doses as in E17): 0 | Complete Response (MX-1 carcinoma; number of 6 mice, tumor not palpable at end of study, i.v. qd x 1 at MTD, Day 60, doses as in E17): 4 | Partial Response (MX-1 carcinoma; number of 6 mice, tumor smaller than on Day 1, i.v. qd x 1 at MTD, Day 60, doses as in E17): 1 | Survivors (MX-1 carcinoma; [4]): 5 | Toxic Deaths (MX-1 carcinoma; [5]): 0

CCC(=O)O[C@H]1C(=O)[C@@]2(C)[C@H]([C@H](OC(=O)c3ccccc3)[C@]3(O)C[C@H](OC(=O)[C@H](O)[C@@H](NC(=O)c4ccccc4)c4ccco4)C(C)=C1C3(C)C)[C@]1(OC(C)=O)CO[C@@H]1C[C@@H]2O [Compound 0663]
Partial Response (HCT116 carcinoma; iv): 2 | Complete Response (HCT116 carcinoma; iv, 1440 h): 2 | Mean Score (HCT116 carcinoma; iv, 1440 h): 7.6 ± 1.9 | Stable Disease (HCT116 carcinoma; iv, 1440 h): 0 | Survivors (HCT116 carcinoma; [1]): 4 | Toxic Deaths (HCT116 carcinoma; [2]): 1 | survival extension compared to Group 1 controls (A2780 ovarian carcinoma; A2780, i.v. qd x 1): 214% | total response rate (A2780 ovarian carcinoma; A2780, i.v. qd x 1): at least 20% | IC50 (HCT116): < 1 nM | Partial Response (MX-1 carcinoma; iv): 0 | Complete Response (MX-1 carcinoma; iv, 1440 h): 4 | Mean Score (MX-1 carcinoma; iv, 1440 h): 7.7 ± 1.5 | Stable Disease (MX-1 carcinoma; iv, 1440 h): 1 | Survivors (MX-1 carcinoma; [4]): 5 | Toxic Deaths (MX-1 carcinoma; [5]): 0

CCC(=O)OC1C(=O)C2(C)C(O)CC3OCC3(OC(C)=O)C2C(OC(=O)c2ccccc2)C2(O)CC(OC(=O)C(O)C(NC(=O)c3ccccc3)c3cccs3)C(C)=C1C2(C)C (stereo not drawn) [Compound 0687]
Survivors (HCT116 carcinoma; [1]): 5 | Survivors (A2780 ovarian carcinoma; [3]): 0 | Survivors (MX-1 carcinoma; [4]): 5

CC(=O)O[C@@]12CO[C@@H]1C[C@H](O)[C@@]1(C)C(=O)[C@H](OC(=O)C3CC3)C3=C(C)[C@@H](OC(=O)[C@H](O)[C@@H](NC(=O)OC(C)C)c4cccs4)C[C@@](O)([C@@H](OC(=O)c4ccccc4)[C@H]21)C3(C)C [Compound 3071]
IC50 (HCT116): < 1 nM

CCCC(=O)O[C@H]1C(=O)[C@@]2(C)[C@H]([C@H](OC(=O)c3ccccc3)[C@]3(O)C[C@H](OC(=O)[C@H](O)[C@@H](NC(=O)OC(C)C)c4cccs4)C(C)=C1C3(C)C)[C@]1(OC(C)=O)CO[C@@H]1C[C@@H]2O [Compound 3909]
IC50 (HCT116): < 1 nM

CCCC(=O)O[C@H]1C(=O)[C@@]2(C)[C@H]([C@H](OC(=O)c3ccccc3)[C@]3(O)C[C@H](OC(=O)[C@H](O)[C@@H](NC(=O)OC(C)(C)C)C(C)C)C(C)=C1C3(C)C)[C@]1(OC(C)=O)CO[C@@H]1C[C@@H]2O [Compound 1031]
IC50 (HCT116): < 10 nM

CC(=O)O[C@@]12CO[C@@H]1C[C@H](O)[C@@]1(C)C(=O)[C@H](OC(=O)c3cccs3)C3=C(C)[C@@H](OC(=O)[C@H](O)[C@@H](NC(=O)OC(C)(C)C)c4ccsc4)C[C@@](O)([C@@H](OC(=O)c4ccccc4)[C@H]21)C3(C)C [Compound 1939]
IC50 (HCT116): < 1 nM

CCC(=O)O[C@H]1C(=O)[C@@]2(C)[C@H]([C@H](OC(=O)c3ccccc3)[C@]3(O)C[C@H](OC(=O)[C@H](O)[C@@H](NC(=O)OCC(C)C)c4cccs4)C(C)=C1C3(C)C)[C@]1(OC(C)=O)CO[C@@H]1C[C@@H]2O [Compound 3163]
IC50 (HCT116): < 1 nM

CC(=O)O[C@@]12CO[C@@H]1C[C@H](O)[C@@]1(C)C(=O)[C@H](OC(=O)C3CC3)C3=C(C)[C@@H](OC(=O)[C@H](O)[C@H](C=C(C)C)NC(=O)c4ccccc4)C[C@@](O)([C@@H](OC(=O)c4ccccc4)[C@H]21)C3(C)C [Compound 0890]
IC50 (HCT116): < 1 nM

CCC(=O)O[C@H]1C(=O)[C@@]2(C)[C@H]([C@H](OC(=O)c3ccccc3)[C@]3(O)C[C@H](OC(=O)[C@H](O)[C@@H](NC(=O)OC(C)(C)C)C4CCC4)C(C)=C1C3(C)C)[C@]1(OC(C)=O)CO[C@@H]1C[C@@H]2O [Compound 0596]
IC50 (HCT116): < 10 nM

CCC(=O)O[C@H]1C(=O)[C@@]2(C)[C@H]([C@H](OC(=O)c3ccccc3)[C@]3(O)C[C@H](OC(=O)[C@H](O)[C@@H](NC(=O)c4ccco4)c4ccco4)C(C)=C1C3(C)C)[C@]1(OC(C)=O)CO[C@@H]1C[C@@H]2O [Compound 3818]
IC50 (HCT116): < 1 nM
